# In patent US8865756B2, “Inhibitors of HCV NS5A” (Presidio Pharmaceuticals, Inc., priority 2008, dated 2014):
# Test system: HCV 1b_Huh-Luc/Neo-ET cell line persistently expressing a bicistronic genotype 1b replicon in Huh 7 cells
# Test: HCV replicon assay (luciferase readout)
# Format: cell-based
# Conditions: Hepatitis C virus, Huh-7, 72 h, read-out: Inhibition of HCV genotype 1b
# Description: Biological activity of the compounds of the invention was determined using an HCV replicon assay. The HCV 1b_Huh-Luc/Neo-ET cell line persistently expressing a bicistronic genotype 1b replicon in Huh 7 cells was obtained from ReBLikon GMBH. This cell line was used to test compound inhibition using luciferase enzyme activity readout as a measurement of compound inhibition of replicon levels.
# On Day 1 (the day after plating), each compound is added in triplicate to the cells. Plates incubated for 72 h prior to running the luciferase assay. Enzyme activity was measured using a Bright-Glo Kit (cat. number E2620) manufactured by Promega Corporation. The following equation was used to generate a percent control value for each compound. % Control=(Average Compound Value/Average Control)*100
# The EC50 value was determined using GraphPad Prism and the following equation: Y=Bottom+(Top−Bottom)/(1+10^((Log IC50−X)*HillSlope))
# EC50 values of compounds are determined several times in the replicon assay.
# Example compounds of the disclosed invention are illustrated in Tables 1-14 attached as appendices. The tables show inhibitory activity of many of the example compounds with respect to HCV 1b. […] The tables further provide mass spectrometry results for the synthesized example compounds.
smiles,measurement,value
CC(C)(C)OC(=O)N[C@@H](C(=O)N1CCC[C@H]1c1ncc(C#Cc2ccc(-c3cnc([C@@H]4CCCN4C(=O)[C@H](NC(=O)OC(C)(C)C)c4ccccc4)[nH]3)cc2)[nH]1)c1ccccc1 [Compound 99],EC50,< 1 nM
O=C(N[C@@H](C(=O)N1CCC[C@H]1c1ncc(C#Cc2ccc(-c3cnc([C@@H]4CCCN4C(=O)[C@H](NC(=O)C4CC4)c4ccccc4)[nH]3)cc2)[nH]1)c1ccccc1)C1CC1 [Compound 100],EC50,< 1 nM
CC(C)(C)OC(=O)N1CCC[C@H]1c1ncc(C#Cc2ccc(-c3cnc([C@@H]4CCCN4C(=O)OC(C)(C)C)[nH]3)cc2)[nH]1 [Compound 101],EC50,10 to 999 nM
O=C(N[C@@H](C(=O)N1CCC[C@H]1c1ncc(C#Cc2ccc(-c3cnc([C@@H]4CCCN4C(=O)[C@H](NC(=O)N4CCOCC4)c4ccccc4)[nH]3)cc2)[nH]1)c1ccccc1)N1CCOCC1 [Compound 102],EC50,1 to 9.9 nM
CC(C)(C)OC(=O)NCC(=O)N1CCC[C@H]1c1ncc(C#Cc2ccc(-c3cnc([C@@H]4CCCN4C(=O)CNC(=O)OC(C)(C)C)[nH]3)cc2)[nH]1 [Compound 103],EC50,10 to 999 nM
C[C@@H](NC(=O)OC(C)(C)C)C(=O)N1CCC[C@H]1c1ncc(C#Cc2ccc(-c3cnc([C@@H]4CCCN4C(=O)[C@@H](C)NC(=O)OC(C)(C)C)[nH]3)cc2)[nH]1 [Compound 104],EC50,1 to 9.9 nM
CC(C)[C@@H](NC(=O)OC(C)(C)C)C(=O)N1CCC[C@H]1c1ncc(C#Cc2ccc(-c3cnc([C@@H]4CCCN4C(=O)[C@H](NC(=O)OC(C)(C)C)C(C)C)[nH]3)cc2)[nH]1 [Compound 105],EC50,10 to 999 nM
CC(C)(C)OC(=O)NC(C)(C)C(=O)N1CCC[C@H]1c1ncc(C#Cc2ccc(-c3cnc([C@@H]4CCCN4C(=O)C(C)(C)NC(=O)OC(C)(C)C)[nH]3)cc2)[nH]1 [Compound 106],EC50,> 1000 nM
CC(C)[C@@H](NC(=O)C1CC1)C(=O)N1CCC[C@H]1c1ncc(C#Cc2ccc(-c3cnc([C@@H]4CCCN4C(=O)[C@H](NC(=O)C4CC4)C(C)C)[nH]3)cc2)[nH]1 [Compound 107],EC50,1 to 9.9 nM
CC(=O)N[C@@H](C(=O)N1CCC[C@H]1c1ncc(C#Cc2ccc(-c3cnc([C@@H]4CCCN4C(=O)[C@H](NC(C)=O)c4ccccc4)[nH]3)cc2)[nH]1)c1ccccc1 [Compound 109],EC50,< 1 nM
COC(=O)N[C@@H](C(=O)N1CCC[C@H]1c1ncc(C#Cc2ccc(-c3cnc([C@@H]4CCCN4C(=O)[C@H](NC(=O)OC)c4ccccc4)[nH]3)cc2)[nH]1)c1ccccc1 [Compound 110],EC50,< 1 nM
C[C@@H](NC(=O)C1CC1)C(=O)N1CCC[C@H]1c1ncc(C#Cc2ccc(-c3cnc([C@@H]4CCCN4C(=O)[C@@H](C)NC(=O)C4CC4)[nH]3)cc2)[nH]1 [Compound 111],EC50,1 to 9.9 nM
O=C([C@H](O)c1ccccc1)N1CCC[C@H]1c1ncc(C#Cc2ccc(-c3cnc([C@@H]4CCCN4C(=O)[C@H](O)c4ccccc4)[nH]3)cc2)[nH]1 [Compound 112],EC50,< 1 nM
O=C(NCC(=O)N1CCC[C@H]1c1ncc(C#Cc2ccc(-c3cnc([C@@H]4CCCN4C(=O)CNC(=O)C4CC4)[nH]3)cc2)[nH]1)C1CC1 [Compound 113],EC50,10 to 999 nM
CC(C)[C@@H](NC(=O)OC(C)(C)C)C(=O)N1CCC[C@H]1C(=O)Nc1ccc(C#Cc2cnc([C@@H]3CCCN3C(=O)[C@H](NC(=O)OC(C)(C)C)C(C)C)[nH]2)cc1 [Compound 114],EC50,10 to 999 nM
CC(C)(C)OC(=O)N[C@@H](C(=O)N1CCC[C@H]1C(=O)Nc1ccc(C#Cc2cnc([C@@H]3CCCN3C(=O)[C@H](NC(=O)OC(C)(C)C)c3ccccc3)[nH]2)cc1)c1ccccc1 [Compound 115],EC50,< 1 nM
CC(C)[C@@H](NC(=O)C1CC1)C(=O)N1CCC[C@H]1C(=O)Nc1ccc(C#Cc2cnc([C@@H]3CCCN3C(=O)[C@H](NC(=O)C3CC3)C(C)C)[nH]2)cc1 [Compound 116],EC50,1 to 9.9 nM
O=C(N[C@@H](C(=O)N1CCC[C@H]1C(=O)Nc1ccc(C#Cc2cnc([C@@H]3CCCN3C(=O)[C@H](NC(=O)C3CC3)c3ccccc3)[nH]2)cc1)c1ccccc1)C1CC1 [Compound 117],EC50,< 1 nM
CN1CCN(C(=O)N[C@@H](C(=O)N2CCC[C@H]2c2ncc(C#Cc3ccc(-c4cnc([C@@H]5CCCN5C(=O)[C@H](NC(=O)N5CCN(C)CC5)c5ccccc5)[nH]4)cc3)[nH]2)c2ccccc2)CC1 [Compound 118],EC50,10 to 999 nM
CC(C)(C)OC(=O)N[C@@H](C(=O)N1CCC[C@H]1C(=O)NCc1ccc(C#Cc2cnc([C@@H]3CCCN3C(=O)[C@H](NC(=O)OC(C)(C)C)c3ccccc3)[nH]2)cc1)c1ccccc1 [Compound 119],EC50,< 1 nM
CC(C)[C@@H](NC(=O)OC(C)(C)C)C(=O)N1CCC[C@H]1C(=O)NCc1ccc(C#Cc2cnc([C@@H]3CCCN3C(=O)[C@H](NC(=O)OC(C)(C)C)C(C)C)[nH]2)cc1 [Compound 120],EC50,10 to 999 nM
O=C(N[C@@H](C(=O)N1CCC[C@H]1C(=O)NCc1ccc(C#Cc2cnc([C@@H]3CCCN3C(=O)[C@H](NC(=O)C3CC3)c3ccccc3)[nH]2)cc1)c1ccccc1)C1CC1 [Compound 121],EC50,< 1 nM
CC(C)[C@@H](NC(=O)C1CC1)C(=O)N1CCC[C@H]1C(=O)NCc1ccc(C#Cc2cnc([C@@H]3CCCN3C(=O)[C@H](NC(=O)C3CC3)C(C)C)[nH]2)cc1 [Compound 122],EC50,1 to 9.9 nM
COC(=O)N[C@@H](C(=O)N1CCC[C@H]1c1ncc(C#Cc2ccc(-c3cnc([C@@H]4CCCN4C(=O)[C@@H](c4ccccc4)N(C)C)[nH]3)cc2)[nH]1)c1ccccc1 [Compound 123],EC50,< 1 nM
CC(C)(C)OC(=O)N[C@@H](C(=O)N1CCC[C@H]1C(=O)NCCc1ccc(C#Cc2cnc([C@@H]3CCCN3C(=O)[C@H](NC(=O)OC(C)(C)C)c3ccccc3)[nH]2)cc1)c1ccccc1 [Compound 124],EC50,< 1 nM
O=C(N[C@@H](C(=O)N1CCC[C@H]1C(=O)NCCc1ccc(C#Cc2cnc([C@@H]3CCCN3C(=O)[C@H](NC(=O)C3CC3)c3ccccc3)[nH]2)cc1)c1ccccc1)C1CC1 [Compound 125],EC50,< 1 nM
CC(C)[C@@H](NC(=O)OC(C)(C)C)C(=O)N1CCC[C@H]1C(=O)NCCc1ccc(C#Cc2cnc([C@@H]3CCCN3C(=O)[C@H](NC(=O)OC(C)(C)C)C(C)C)[nH]2)cc1 [Compound 126],EC50,10 to 999 nM
CC(C)[C@@H](NC(=O)C1CC1)C(=O)N1CCC[C@H]1C(=O)NCCc1ccc(C#Cc2cnc([C@@H]3CCCN3C(=O)[C@H](NC(=O)C3CC3)C(C)C)[nH]2)cc1 [Compound 127],EC50,10 to 999 nM
COC(=O)N[C@@H](C(=O)N1CCC[C@H]1c1ncc(-c2ccc(C#Cc3cnc([C@@H]4CCCN4C(=O)[C@@H](c4ccccc4)N(C)C)[nH]3)cc2)[nH]1)c1ccccc1 [Compound 128],EC50,< 1 nM
C[C@@H](NC(=O)[C@@H]1CCCN1C(=O)[C@H](NC(=O)OC(C)(C)C)c1ccccc1)c1ccc(C#Cc2cnc([C@@H]3CCCN3C(=O)[C@H](NC(=O)OC(C)(C)C)c3ccccc3)[nH]2)cc1 [Compound 129],EC50,10 to 999 nM
C[C@H](NC(=O)[C@@H]1CCCN1C(=O)[C@H](NC(=O)OC(C)(C)C)c1ccccc1)c1ccc(C#Cc2cnc([C@@H]3CCCN3C(=O)[C@H](NC(=O)OC(C)(C)C)c3ccccc3)[nH]2)cc1 [Compound 130],EC50,10 to 999 nM
CN(C)[C@@H](C(=O)N1CCC[C@H]1c1ncc(-c2ccc(C#Cc3cnc([C@@H]4CCCN4C(=O)[C@H](NC(=O)C4CC4)c4ccccc4)[nH]3)cc2)[nH]1)c1ccccc1 [Compound 131],EC50,< 1 nM
C[C@H](NC(=O)[C@@H]1CCCN1C(=O)[C@H](NC(=O)C1CC1)c1ccccc1)c1ccc(C#Cc2cnc([C@@H]3CCCN3C(=O)[C@H](NC(=O)C3CC3)c3ccccc3)[nH]2)cc1 [Compound 132],EC50,10 to 999 nM
CN(C)[C@@H](C(=O)N1CCC[C@H]1c1ncc(C#Cc2ccc(-c3cnc([C@@H]4CCCN4C(=O)[C@H](NC(=O)C4CC4)c4ccccc4)[nH]3)cc2)[nH]1)c1ccccc1 [Compound 133],EC50,< 1 nM
COC(=O)N[C@H](C(=O)N1CCC[C@H]1c1ncc(C#Cc2ccc(-c3cnc([C@@H]4CCCN4C(=O)[C@@H](NC(=O)OC)C(C)C)[nH]3)cc2)[nH]1)C(C)C [Compound 134],EC50,< 1 nM
C[C@@H](NC(=O)[C@@H]1CCCN1C(=O)[C@H](NC(=O)C1CC1)c1ccccc1)c1ccc(C#Cc2cnc([C@@H]3CCCN3C(=O)[C@H](NC(=O)C3CC3)c3ccccc3)[nH]2)cc1 [Compound 135],EC50,> 1000 nM
CC(C)(C)OC(=O)N[C@@H](C(=O)N1CCC[C@H]1c1ncc(-c2ccc(C#Cc3ccc(-c4cnc([C@@H]5CCCN5C(=O)[C@H](NC(=O)OC(C)(C)C)c5ccccc5)[nH]4)cc3)cc2)[nH]1)c1ccccc1 [Compound 150],EC50,< 1 nM
C[C@@H](NC(=O)OC(C)(C)C)C(=O)N1CCC[C@H]1c1ncc(-c2ccc(C#Cc3ccc(-c4cnc([C@@H]5CCCN5C(=O)[C@@H](C)NC(=O)OC(C)(C)C)[nH]4)cc3)cc2)[nH]1 [Compound 151],EC50,10 to 999 nM
CC(C)[C@@H](NC(=O)OC(C)(C)C)C(=O)N1CCC[C@H]1c1ncc(-c2ccc(C#Cc3ccc(-c4cnc([C@@H]5CCCN5C(=O)[C@H](NC(=O)OC(C)(C)C)C(C)C)[nH]4)cc3)cc2)[nH]1 [Compound 152],EC50,10 to 999 nM
O=C(N[C@@H](C(=O)N1CCC[C@H]1c1ncc(-c2ccc(C#Cc3ccc(-c4cnc([C@@H]5CCCN5C(=O)[C@H](NC(=O)C5CC5)c5ccccc5)[nH]4)cc3)cc2)[nH]1)c1ccccc1)C1CC1 [Compound 153],EC50,< 1 nM
C[C@@H](NC(=O)C1CC1)C(=O)N1CCC[C@H]1c1ncc(-c2ccc(C#Cc3ccc(-c4cnc([C@@H]5CCCN5C(=O)[C@@H](C)NC(=O)C5CC5)[nH]4)cc3)cc2)[nH]1 [Compound 154],EC50,1 to 9.9 nM
